Experimental data taken from PubChem BioAssay (NCI).
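Results reflect a 48-hour exposure of cells in 96-well plates to compound at five concentrations. TGI is the concentration that stops growth completely.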

Assays:
Test in all cases: NCI anticancer screen, dose series, 48 h
786-0 renal = system: 786-0 renal
A549 NSCLC = system: A549 NSCLC
ACHN renal = system: ACHN renal
CAKI-1 renal = system: CAKI-1 renal
CCRF-CEM leukemia = system: CCRF-CEM leukemia
COLO 205 colon = system: COLO 205 colon
DLD-1 colon = system: DLD-1 colon
DMS 114 small cell lung = system: DMS 114 small cell lung
DMS 273 small cell lung = system: DMS 273 small cell lung
HCC-2998 colon = system: HCC-2998 colon
HCT-116 colon = system: HCT-116 colon
HCT-15 colon = system: HCT-15 colon
HL-60(TB) leukemia = system: HL-60(TB) leukemia
HOP-62 NSCLC = system: HOP-62 NSCLC
HOP-92 NSCLC = system: HOP-92 NSCLC
HT29 colon = system: HT29 colon
IGROV1 ovarian = system: IGROV1 ovarian
K-562 leukemia = system: K-562 leukemia
KM12 colon = system: KM12 colon
KM20L2 colon = system: KM20L2 colon
LXFL 529 NSCLC = system: LXFL 529 NSCLC
M14 melanoma = system: M14 melanoma
M19-MEL melanoma = system: M19-MEL melanoma
MALME-3M melanoma = system: MALME-3M melanoma
MOLT-4 leukemia = system: MOLT-4 leukemia
NCI-H226 lung = system: NCI-H226 lung
NCI-H23 lung = system: NCI-H23 lung
NCI-H460 lung = system: NCI-H460 lung
NCI-H522 lung = system: NCI-H522 lung
OVCAR-3 ovarian = system: OVCAR-3 ovarian
OVCAR-4 ovarian = system: OVCAR-4 ovarian
OVCAR-5 ovarian = system: OVCAR-5 ovarian
OVCAR-8 ovarian = system: OVCAR-8 ovarian
RPMI-8226 leukemia = system: RPMI-8226 leukemia
SF-268 CNS = system: SF-268 CNS
SF-295 CNS = system: SF-295 CNS
SF-539 CNS = system: SF-539 CNS
SK-MEL-2 melanoma = system: SK-MEL-2 melanoma
SK-MEL-28 melanoma = system: SK-MEL-28 melanoma
SK-MEL-5 melanoma = system: SK-MEL-5 melanoma
SNB-19 CNS = system: SNB-19 CNS
SNB-75 CNS = system: SNB-75 CNS
SR leukemia = system: SR leukemia
SW-620 colon = system: SW-620 colon
TK-10 renal = system: TK-10 renal
U251 CNS = system: U251 CNS
UACC-257 melanoma = system: UACC-257 melanoma
UACC-62 melanoma = system: UACC-62 melanoma
UO-31 renal = system: UO-31 renal
A498 renal = system: A498 renal
EKVX NSCLC = system: EKVX NSCLC
RXF 393 renal = system: RXF 393 renal
SK-OV-3 ovarian = system: SK-OV-3 ovarian
SN12C renal = system: SN12C renal
SNB-78 CNS = system: SNB-78 CNS
LOX IMVI melanoma = system: LOX IMVI melanoma

Measured: TGI

Cc1ccc(-c2cc(=S)n(-c3ccccc3)c3nc(=S)n(-c4ccccc4)c(N)c23)cc1
> 100 µM: 786-0 renal | A549 NSCLC | ACHN renal | CAKI-1 renal | CCRF-CEM leukemia | COLO 205 colon | DLD-1 colon | DMS 114 small cell lung | DMS 273 small cell lung | HCC-2998 colon | HCT-116 colon | HCT-15 colon | HL-60(TB) leukemia | HOP-62 NSCLC | HOP-92 NSCLC | HT29 colon | IGROV1 ovarian | K-562 leukemia | KM12 colon | KM20L2 colon | LXFL 529 NSCLC | M14 melanoma | M19-MEL melanoma | MALME-3M melanoma | MOLT-4 leukemia | NCI-H226 lung | NCI-H23 lung | NCI-H460 lung | NCI-H522 lung | OVCAR-3 ovarian | OVCAR-4 ovarian | OVCAR-5 ovarian | OVCAR-8 ovarian | RPMI-8226 leukemia | SF-268 CNS | SF-295 CNS | SF-539 CNS | SK-MEL-2 melanoma | SK-MEL-28 melanoma | SK-MEL-5 melanoma | SNB-19 CNS | SNB-75 CNS | SR leukemia | SW-620 colon | TK-10 renal | U251 CNS | UACC-257 melanoma | UACC-62 melanoma | UO-31 renal

CCCC12Cc3c(OC)ccc(OC)c3CC(Cc3c(OC)ccc(OC)c31)C2=O (stereo not given)
> 100 µM: 786-0 renal | A498 renal | A549 NSCLC | ACHN renal | CAKI-1 renal | CCRF-CEM leukemia | DLD-1 colon | DMS 114 small cell lung | DMS 273 small cell lung | EKVX NSCLC | HCC-2998 colon | HCT-116 colon | HCT-15 colon | HL-60(TB) leukemia | HOP-62 NSCLC | HT29 colon | K-562 leukemia | KM12 colon | LXFL 529 NSCLC | M14 melanoma | M19-MEL melanoma | MALME-3M melanoma | MOLT-4 leukemia | NCI-H226 lung | NCI-H23 lung | NCI-H460 lung | NCI-H522 lung | OVCAR-3 ovarian | OVCAR-4 ovarian | OVCAR-5 ovarian | OVCAR-8 ovarian | RXF 393 renal | SF-268 CNS | SF-295 CNS | SF-539 CNS | SK-MEL-2 melanoma | SK-MEL-28 melanoma | SK-MEL-5 melanoma | SK-OV-3 ovarian | SN12C renal | SNB-19 CNS | SNB-75 CNS | SNB-78 CNS | SR leukemia | SW-620 colon | TK-10 renal | U251 CNS | UACC-257 melanoma | UO-31 renal

CNc1nc(N)cc(=O)[nH]1
> 100 µM: 786-0 renal | A498 renal | A549 NSCLC | ACHN renal | CAKI-1 renal | CCRF-CEM leukemia | COLO 205 colon | DLD-1 colon | DMS 114 small cell lung | DMS 273 small cell lung | EKVX NSCLC | HCC-2998 colon | HCT-116 colon | HCT-15 colon | HL-60(TB) leukemia | HOP-62 NSCLC | HT29 colon | IGROV1 ovarian | K-562 leukemia | KM12 colon | KM20L2 colon | LOX IMVI melanoma | LXFL 529 NSCLC | M14 melanoma | M19-MEL melanoma | MALME-3M melanoma | MOLT-4 leukemia | NCI-H226 lung | NCI-H23 lung | NCI-H460 lung | NCI-H522 lung | OVCAR-3 ovarian | OVCAR-4 ovarian | OVCAR-5 ovarian | OVCAR-8 ovarian | RPMI-8226 leukemia | SF-268 CNS | SF-295 CNS | SK-MEL-2 melanoma | SK-MEL-28 melanoma | SK-MEL-5 melanoma | SK-OV-3 ovarian | SN12C renal | SNB-19 CNS | SNB-75 CNS | SNB-78 CNS | SW-620 colon | TK-10 renal | U251 CNS | UACC-257 melanoma | UACC-62 melanoma | UO-31 renal
